Data: US20210069286A1, “COMPOSITIONS AND METHODS FOR TREATING OR PREVENTING HYPERGLYCEMIA, INSULIN RESISTANCE, AND […] DAMAGE” (9 Meters Biopharma, Inc., priority 2018, published 2021)
No end group written: not given here.

Key:
[1] = test system: intestinal disease symptoms; conditions: clinical trials, cited from earlier work
tight junction = assay: activity as tight junction regulators; conditions: for activity as tight junction regulators: fragment alone
Text: See US 2016/0022760, which is hereby incorporated by reference in its entirety. […] It is believed that an aminopeptidase located within the brush borders of the lumen surface may create larazotide-derived fragments, including fragments missing N-terminal glycine residues.

Row | Substance | activity at reducing intestinal disease symptoms ([1]; higher doses (e.g., 1 mg and 2 mg doses)) | benefit at reducing intestinal disease symptoms ([1]; lower doses (e.g., 0.5 mg dose)) | activity as tight junction regulator (tight junction; fragments GVLVQPG and VLVQPG mixed with full length larazotide) | activity as tight junction regulators (tight junction)
1 | GGVLVQPG [Larazotide] | attenuation of activity, or no activity at all | benefit | completely abolished | –
2 | GVLVQPG [larazotide-derived fragment missing N-terminal glycine residue] | – | – | – | largely inactive
3 | VLVQPG [larazotide-derived fragment missing N-terminal glycine residues] | – | – | – | largely inactive
